Experimental data: patent publication US20120115955A1, “Methods for tumor treatment and adipogenesis differentiation” (Centro de Investigacion Principe Felipe, priority 2010, published 2012)
Entries after “also recorded” stand apart in the source; their conditions may differ.

Key:
MALME-3M cells = assay: Nile-Red neutral lipid / LD quantification by flow cytometry (FL2); type: cell-based, human; conditions: 12 hours, vs DMSO control; for LD accumulation (Nile-RED): 100 μg/ml each fatty acid, except 10 μg/ml docosahexaenoic and arachidonic acid; for fold induction at 100 µg/mL: Homo sapiens, 100 μg/ml, read-out: generation of LDs, fold induction (Nile-RED FL2)
Experimental: FIG. 6. […] MALME-3M cells were cultured in the presence of 10 μg/ml of docosahexaenoic acid, 100 μg/ml of nervonic acid, 100 μg/ml of erucic acid, 10 μg/ml of arachidonic acid, 100 μg/ml of linolenic acid, 100 μg/ml of linoleic acid, 100 μg/ml of oleic acid, 100 μg/ml of palmitoleic acid, 100 μg/ml of elaidic acid, or 100 μg/ml petroselinic acid for 12 hours. Fatty acids were dissolved in DMSO; therefore the cells cultured with RPMI+10% FBS and treated with DMSO only were considered negative controls. The Nile-Red analysis was performed as described in the Material and Methods section. Quantification in the FL2 parameter was assessed by the FlowJo software. Fold induction was estimated by calculating the ratio between treated conditions and the untreated condition (control). The results are representative of three independent experiments.
(§1) Cells (10^5) were washed twice in PBS and then incubated with 25 μg/ml of Nile-Red (Invitrogen) in PBS (15 min, 4° C.). After incubation, cells were filtered through a 30 μm sieve (CellTrics, Partec). Fluorescent emission (525 nm) was registered in the FL2 channel by a Beckman Coulter Flow Cytometer (Cytomics™ FC 500). Data files were analyzed using the FlowJo flow cytometer analysis software.

[1] = test system: HCCLs (MALME-3M, MCF-7, SK-OV-3, HUH-7); assay: Flow cytometry FSC and SSC parameters of HCCLs; type: cell-based, human; conditions: mini-screen of unsaturated fatty acids associated with albumin; HUH-7, SK-OV-3, MCF-7, MALME-3M
HUH-7 cells = type: cell-based
Experimental: as §1

CCCCCCC=CCCCCCCCC(=O)O [palmitoleic acid, hexadec-9-enoic acid]
LD accumulation (Nile-RED) (MALME-3M cells): LD accumulation was induced | fold induction at 100 µg/mL (MALME-3M cells): ≥ 6 | modifications in the forward and side scatter parameters [1]: remarkable modifications in the forward and side scatter parameters

CCCCC/C=C\C/C=C\CCCCCCCC(=O)O [linoleic acid, cis, cis-9,12-octadecadienoic acid]
LD accumulation (Nile-RED) (MALME-3M cells): triggers LD accumulation; also recorded: LD accumulation was induced | fold induction at 100 µg/mL (MALME-3M cells): ≥ 6 | LD accumulation by single fatty acid (HUH-7 cells): triggers LD accumulation | modifications in the forward and side scatter parameters [1]: remarkable modifications in the forward and side scatter parameters

CCCCCCCCCCC/C=C\CCCCC(=O)O [petroselinic acid, cis-6-octadecenoic]
LD accumulation (Nile-RED) (MALME-3M cells): LD accumulation was induced | fold induction at 100 µg/mL (MALME-3M cells): ≥ 6

CCCCCCCC/C=C/CCCCCCCC(=O)O [elaidic acid, reference compound]
LD accumulation (Nile-RED) (MALME-3M cells): LD accumulation was induced

CCCCCCCC/C=C\CCCCCCCCCCCC(=O)O [erucic acid, reference compound]
LD accumulation (Nile-RED) (MALME-3M cells): LD accumulation was induced

CCCCCCCC/C=C\CCCCCCCC(=O)O [oleic acid, (9Z)-Octadec-9-enoic acid]
LD accumulation (Nile-RED) (MALME-3M cells): LD accumulation was induced | fold induction at 100 µg/mL (MALME-3M cells): ≥ 6 | modifications in the forward and side scatter parameters [1]: remarkable modifications in the forward and side scatter parameters
